What was measured:
[1] = Isoflurane concentration and loss over time measured by ATR-FTIR (1300-1260 cm^-1); assay type: physicochemical; details: exposed to air
Procedure: In accordance with the present example, ATR-FTIR spectra were recorded on a PerkinElmer Spectrum 100 FTIR spectrometer equipped with a KBr beam splitter, 1 bounce Universal Di/ZnSe ATR sampling accessory, and electronically, temperature-stabilized fast recovery deuterated triglycine sulfate detector. The spectra generated are an average of four scans at a resolution of 4 cm^−1. Emulsion samples of 50 μL each were obtained from each of the emulsions described below, and the emulsion samples were measured by covering the measurement surface. Standard curves were generated by manufacturing emulsions of known volume percentage isoflurane by gravimetric determination, performing ATR-FTIR measurements and then, taking area under the curve (“AUC”) determinations of peaks in the region specific to fluorine bond vibration (1300-1000 cm^−1). […]
From these peaks, measurements of the area under the curve (“AUC”) for each of the two spectral regions, once again, 1300-1260 cm^−1 and 1225-1011 cm^−1, were used to generate standard curves of isoflurane concentration. […] The two curves were generated to evaluate the possibility of isoflurane loss during the emulsification process, as a comparison between the two standard curves would allow for assessment of error in emulsion manufacture and allow for more accurate quantification. […]

p38 MAPK = p38 MAPK activity after H2O2 oxidative stress in β-TC3 cells; assay type: cell-based, murine
Procedure: Murine insulinoma beta-TC3 (β-TC3) cells were used as a surrogate source of β-cells in vitro. The β-TC3 cells were incubated for 48 hours, and then subdivided into four (4) groups, with three (3) series of cell cultures per group repeated in triplicate. Group 1 were sham cultured β-TC3 cells; group 2 cells were subdivided into those pre-treated with 0.5 mM isoflurane for 15 minutes or 60 minutes without H2O2, followed by an isoflurane washout; group 3 cells were exposed only to 0.3 mM H2O2 for 3 hours; group 4 cells were pre-treated with isoflurane for 15 minutes or 60 minutes, as in group 2, followed by an isoflurane washout and exposure to 0.3 mM H2O2 for 3 hours. FIG. 26 is illustrative of the experimental design for the present study.

[2] = system: Murine insulinoma beta-TC3 (β-TC3) cells; assay: Anesthetic preconditioning against H2O2 oxidative stress, cell viability by FACS; assay type: cell-based
Procedure: Murine insulinoma beta-TC3 (β-TC3) cells were used as a surrogate source of β-cells in vitro. […] FIG. 26 is illustrative of the experimental design for the present study. Cells were then harvested and assayed for viability via FACS analysis (Live/Dead far red, and TMRE, mitochondrial fluorescent dye to detect apoptosis). Data was analyzed using ANOVA with post hoc Tukey for multiple comparisons.

[3] = Isoflurane concentration in stored emulsion measured by weight; assay type: physicochemical; details: open container, about 21° C.
Procedure: A standard curve for determining isoflurane concentration was generated based upon 1 mL mixtures of a base solution, i.e., 2% w/v surfactant plus PBS or HBSS; 10% v/v FC-43; and, various known v/v % isoflurane concentrations. A 1 mL aliquot of each of these mixtures was weighed and compared to its expected weight based on the density of each component, and a predicted density of each mixture. The predicted or expected density of each mixture was determined by the following equation: ρexpected=ν%A*ρA+ν%BρB+ν%CρC
where ρ is the density, and A, B, C are the surfactant solution, PCF or FC-43, and isoflurane, respectively. FIG. 8 is a standard curve generated in accordance with the procedure of this example for the determination of isoflurane concentration by weight. The measured values were compared to the theoretical values, or ρexpected, and a high degree of correlation, R^2>0.99, was observed, as illustrated in FIG. 9.
From the standard curve generated of the mixtures, the content of isoflurane in any emulsion can be determined by weighing a known volume, for example, a 1 mL aliquot. and tabulating the known portions of the weight, e.g., the volume percentages of the base solution and PCF, i.e., FC-43, and calculating the unknown volume by dividing the remaining weight by the density of pure isoflurane. […]

Structure (SMILES)	time to complete evaporation on ATR-FTIR crystal [1] [s]	p38 MAPK activity (p38 MAPK; isoflurane pretreatment, compared to cells exposed to H2O2 alone)	β-TC3 cell survival compared to controls ([2]; 0.5 mM isoflurane pretreatment 15 minutes, washout, then 0.3 mM H2O2 for 3 hours) [%]	β-TC3 cell survival compared to controls ([2]; 0.5 mM isoflurane pretreatment 60 minutes, washout, then 0.3 mM H2O2 for 3 hours) [%]	time to essentially complete evaporation [3]	fraction of sample evaporated ([3]; after about 0.2 hours) [%]	p38 MAPK activity (p38 MAPK; treatment by H2O2 alone)	β-TC3 cell survival compared to controls ([2]; 0.3 mM H2O2 for 3 hours alone) [%]
FC(F)OC(Cl)C(F)(F)F (centres unmarked) [isoflurane]	≤ 10	significantly decreased p38 MAPK activity	98±2	105±0	over 0.5 hours	~50	–	–
OO [H2O2, hydrogen peroxide]	–	–	–	–	–	–	increased protein kinase activity	44±13

Reference: patent publication US9308269B2, “Stable liquid formulations of volatile gas anesthetics” (UNIVERSITY OF MIAMI, priority 2011, dated 2016)
